The source of these data is US20130030282A1, “SYNTHESIS AND CHARACTERIZATION OF NEAR IR FLUORESCENT MAGNETIC AND NON-MAGNETIC ALBUMIN NANOPARTICLES FOR BIOMEDICAL APPLICATIONS” (BAR ILAN UNIVERSITY, priority 2011, published 2013).

This data set in a line: Stability against photobleaching of free CANIR and NIR fluorescent nanoparticles. The class given is physicochemical. The conditions noted are these: illuminated continuously with a Xenon flash lamp for 20 minutes; λex 800 nm, λem 830 nm; intensity normalized. On the procedure:
Photobleaching is the irreversible light-induced destruction of the fluorophore, affected by factors such as oxygen, oxidizing or reducing agents, temperature, exposure time and illumination levels. For photobleaching experiments, the samples were diluted to 0.05M and λex was set at 800 nm and λem at 830 nm. Each of the samples was illuminated continuously, and fluorescence intensity was measured over a period of 20 minutes. The intensity values were normalized.
Photobleaching experiments were performed for the free CANIR dye and the CANIR-HSA nanoparticles, in order to examine their photostabillity. For the photobleaching experiments, the samples were diluted to 0.05M and λex was set at 800 nm and λem at 830 nm. Each of the samples was illuminated continuously, and fluorescence intensity was measured over a period of 20 minutes. Intensity values were normalized. […] The encapsulation of the dye probably protects the dye against reactive oxygen species thereby reducing the photobleaching.
FIG. 2 depicts the photostability of the CANIR-HSA nanoparticles (A) and free CANIR (B) as a function of time. Samples of CANIR containing HSA nanoparticles and free CANIR were illuminated with a Xenon flash lamp for 20 minutes as described above.

Consider `CC1(C)C(=CC=C2CCCC(C=CC3=[N+](CCCCS(=O)(=O)[O-])c4ccccc4C3(C)C)=C2Sc2ccc(C(=O)O)cc2)N(CCCCS(=O)(=O)[O-])c2ccccc21.[Na+]` [free CANIR], for which the “fluorescence intensity during illumination (photostability)” value is “decreases significantly”.
